Test results reported in ChEMBL document CHEMBL1136459, “New antibacterial tetrahydro-4(2H)-thiopyran and thiomorpholine S-oxide and S,S-dioxide phenyloxazolidinones” (Bioorg Med Chem Lett, 2003).
Converted amounts (≈) assume the structure as drawn.

What was measured:
Staphylococcus aureus [1] = test: In vitro antibacterial activity against linezolid-resistant Staphylococcus aureus ATCC 29213 (LRSA).; format: functional
Moraxella catarrhalis [2] = test: In vitro antibacterial activity against Moraxella catarrhalis strains 30607 and 30603 (MC).; format: functional
Enterococcus faecium = test: In vitro antibacterial activity against vancomycin-resistant Enterococcus faecium UC12712 (VRE).
Haemophilus influenzae [3] = test: In vitro antibacterial activity against Haemophilia influenzae strains 30063 and ATCC 31517 (HI); range is 8-32; format: functional
Staphylococcus aureus [4] = test: In vitro antibacterial activity against Staphylococcus aureus strains UC12673, UC9213, ATCC 29213, and UC9271 (SA); format: functional
[5] = test system: Staphylococcus epidermidis; test: In vitro antibacterial activity against Staphylococcus epidermidis strains UC12084, 30031, and CDC-CNS90 (SE); range is 2-4; format: functional
[6] = test system: Staphylococcus epidermidis; test: In vitro antibacterial activity against Staphylococcus epidermidis strains UC12084, 30031, and CDC-CNS90 (SE); format: functional
Staphylococcus aureus [7] = test: In vitro antibacterial activity against Staphylococcus aureus strains UC12673, UC9213, ATCC 29213, and UC9271 (SA); range is 8-16; format: functional
Haemophilus influenzae [8] = test: In vitro antibacterial activity against Haemophilia influenzae strains 30063 and ATCC 31517 (HI); range is 16-32; format: functional
Staphylococcus aureus [9] = test: In vitro antibacterial activity against Staphylococcus aureus strains UC12673, UC9213, ATCC 29213, and UC9271 (SA); range is 16-32; format: functional
Haemophilus influenzae [10] = test: In vitro antibacterial activity against Haemophilia influenzae strains ATCC 30063 and ATCC 31517; format: functional
Moraxella catarrhalis [11] = test: In vitro antibacterial activity against Moraxella catarrhalis strains 30607 and 30603 (MC); range is 8-16; format: functional
Haemophilus influenzae [12] = test: In vitro antibacterial activity against Haemophilia influenzae strains 30063 and ATCC 31517 (HI); range is 32->64; format: functional
Moraxella catarrhalis [13] = test: In vitro antibacterial activity against Moraxella catarrhalis strains 30607 and 30603 (MC); range is 16-32; format: functional
Streptococcus pneumoniae [14] = test: In vitro antibacterial activity against Streptococcus pneumoniae strains ATCC 6305 and 31573 (SPN); range is 4-8
[15] = test system: Staphylococcus epidermidis; test: In vitro antibacterial activity against Staphylococcus epidermidis strains UC12084, 30031, and CDC-CNS90 (SE); range is 4-8; format: functional
[16] = test system: Staphylococcus epidermidis; test: In vitro antibacterial activity against Staphylococcus epidermidis strains UC12084, 30031, and CDC-CNS90 (SE); range is 0.5-1; format: functional
Haemophilus influenzae [17] = test: In vitro antibacterial activity against Haemophilia influenzae strains 30063 and ATCC 31517 (HI); range is 4-16; format: functional
Streptococcus pneumoniae [18] = test: In vitro antibacterial activity against Streptococcus pneumoniae strains ATCC6305 and 31573 (SPN).
Haemophilus influenzae [19] = test: In vitro antibacterial activity against Haemophilia influenzae strains 30063 and ATCC 31517 (HI); range is 4-8; format: functional
Streptococcus pneumoniae [20] = test: In vitro antibacterial activity against Streptococcus pneumoniae strains ATCC 6305 and 31573 (SPN); range is 0.5-1
[21] = test system: Staphylococcus epidermidis; test: In vitro antibacterial activity against Staphylococcus epidermidis strains UC12084, 30031, and CDC-CNS90 (SE); range is 1-2; format: functional
Staphylococcus aureus [22] = test: In vitro antibacterial activity against Staphylococcus aureus strains UC12673, UC9213, ATCC 29213, and UC9271 (SA); range is 4-8; format: functional
Staphylococcus aureus [23] = test: In vitro antibacterial activity against Staphylococcus aureus strains UC12673, UC9213, ATCC 29213, and UC9271 (SA); range is 4-16; format: functional
Staphylococcus aureus [24] = test: In vitro antibacterial activity against Staphylococcus aureus strains UC12673, UC9213, ATCC 29213, and UC9271 (SA); range is 8-32; format: functional
Haemophilus influenzae [25] = test: In vitro antibacterial activity against Haemophilia influenzae strains 30063 and ATCC 31517 (HI); range is 32-64; format: functional
Streptococcus pneumoniae [26] = test: In vitro antibacterial activity against Streptococcus pneumoniae strains ATCC 6305 and 31573 (SPN).; format: functional

Structure (SMILES)	MIC (Staphylococcus aureus [1])	MIC (Moraxella catarrhalis [2])	MIC (Enterococcus faecium)	MIC (Staphylococcus aureus [4])	MIC [6]	MIC (Haemophilus influenzae [10])	other results
O=C1O[C@@H](CNC(=O)C(F)(F)F)CN1c1ccc(C2CC[S+]([O-])CC2)c(F)c1 (some centres not stated)	32 µg/mL (≈ 75.8 µM)	8 µg/mL (≈ 18.9 µM)	4 µg/mL (≈ 9.47 µM)	8 µg/mL (≈ 18.9 µM)			MIC (Haemophilus influenzae [3]): 8 µg/mL (≈ 18.9 µM); MIC [5]: 2 µg/mL (≈ 4.73 µM)
O=C(CC(F)(F)F)NC[C@H]1CN(c2ccc(N3CCS(=O)(=O)CC3)c(F)c2)C(=O)O1	> 64 µg/mL	16 µg/mL (≈ 35.3 µM)	4 µg/mL (≈ 8.82 µM)		4 µg/mL (≈ 8.82 µM)		MIC (Staphylococcus aureus [7]): 8 µg/mL (≈ 17.6 µM); MIC (Haemophilus influenzae [8]): 16 µg/mL (≈ 35.3 µM)
O=C(NC[C@H]1CN(c2ccc(N3CC[S+]([O-])CC3)c(F)c2)C(=O)O1)C1CC1	64 µg/mL (≈ 162 µM)		4 µg/mL (≈ 10.1 µM)		4 µg/mL (≈ 10.1 µM)	32 µg/mL (≈ 80.9 µM)	MIC (Staphylococcus aureus [9]): 16 µg/mL (≈ 40.5 µM); MIC (Moraxella catarrhalis [11]): 8 µg/mL (≈ 20.2 µM)
COCC(=O)NC[C@H]1CN(c2ccc(N3CC[S+]([O-])CC3)c(F)c2)C(=O)O1	> 64 µg/mL		16 µg/mL (≈ 40.1 µM)				MIC (Haemophilus influenzae [12]): 32 µg/mL (≈ 80.1 µM); MIC (Moraxella catarrhalis [13]): 16 µg/mL (≈ 40.1 µM); MIC (Staphylococcus aureus [9]): 16 µg/mL (≈ 40.1 µM); MIC (Streptococcus pneumoniae [14]): 4 µg/mL (≈ 10 µM); MIC [15]: 4 µg/mL (≈ 10 µM)
O=C(CF)NC[C@H]1CN(c2ccc(C3CCS(=O)(=O)CC3)c(F)c2)C(=O)O1	64 µg/mL (≈ 159 µM)	> 8 µg/mL	2 µg/mL (≈ 4.97 µM)	2 µg/mL (≈ 4.97 µM)			MIC [16]: 0.5 µg/mL (≈ 1.24 µM); MIC (Haemophilus influenzae [17]): > 4 µg/mL; MIC (Streptococcus pneumoniae [18]): 0.5 µg/mL (≈ 1.24 µM)
CC(=O)NC[C@H]1CN(c2ccc(N3CCS(=O)(=O)CC3)c(F)c2)C(=O)O1	64 µg/mL (≈ 166 µM)	4 µg/mL (≈ 10.4 µM)	2 µg/mL (≈ 5.19 µM)	4 µg/mL (≈ 10.4 µM)	1 µg/mL (≈ 2.59 µM)		MIC (Haemophilus influenzae [19]): 4 µg/mL (≈ 10.4 µM); MIC (Streptococcus pneumoniae [20]): 0.5 µg/mL (≈ 1.3 µM)
CC(=O)Nc1ccc(/C=C/C(=O)NC[C@H]2CN(c3ccc(N4CC[S+]([O-])CC4)c(F)c3)C(=O)O2)cc1	> 64 µg/mL	16 µg/mL (≈ 31.1 µM)	8 µg/mL (≈ 15.5 µM)			> 64 µg/mL	MIC [21]: 1 µg/mL (≈ 1.94 µM); MIC (Staphylococcus aureus [22]): 4 µg/mL (≈ 7.77 µM)
O=C(NC[C@H]1CN(c2ccc(C3CCS(=O)(=O)CC3)c(F)c2)C(=O)O1)C(F)F	32 µg/mL (≈ 76.1 µM)	8 µg/mL (≈ 19 µM)	4 µg/mL (≈ 9.51 µM)				MIC (Haemophilus influenzae [17]): > 4 µg/mL; MIC [21]: 1 µg/mL (≈ 2.38 µM); MIC (Staphylococcus aureus [23]): 4 µg/mL (≈ 9.51 µM); MIC (Streptococcus pneumoniae [18]): 1 µg/mL (≈ 2.38 µM)
O=C1O[C@@H](CNC(=O)C(F)(F)F)CN1c1ccc(C2CCS(=O)(=O)CC2)c(F)c1	64 µg/mL (≈ 146 µM)	8 µg/mL (≈ 18.2 µM)	8 µg/mL (≈ 18.2 µM)				MIC (Staphylococcus aureus [24]): 8 µg/mL (≈ 18.2 µM); MIC (Haemophilus influenzae [3]): > 8 µg/mL; MIC [5]: 2 µg/mL (≈ 4.56 µM)
O=C(NC[C@H]1CN(c2ccc(N3CCS(=O)(=O)CC3)c(F)c2)C(=O)O1)c1csnn1	32 µg/mL (≈ 70.3 µM)	32 µg/mL (≈ 70.3 µM)	16 µg/mL (≈ 35.1 µM)				MIC (Staphylococcus aureus [24]): 8 µg/mL (≈ 17.6 µM); MIC (Haemophilus influenzae [25]): 32 µg/mL (≈ 70.3 µM); MIC (Streptococcus pneumoniae [14]): 4 µg/mL (≈ 8.78 µM); MIC [15]: 4 µg/mL (≈ 8.78 µM)
COc1ccc(/C=C/C(=O)NC[C@H]2CN(c3ccc(N4CC[S+]([O-])CC4)c(F)c3)C(=O)O2)cc1	> 64 µg/mL	> 64 µg/mL	4 µg/mL (≈ 8.2 µM)	4 µg/mL (≈ 8.2 µM)	2 µg/mL (≈ 4.1 µM)	> 64 µg/mL	
O=C(/C=C/c1ccc(F)cc1)NC[C@H]1CN(c2ccc(N3CC[S+]([O-])CC3)c(F)c2)C(=O)O1	32 µg/mL (≈ 67.3 µM)		4 µg/mL (≈ 8.41 µM)		2 µg/mL (≈ 4.21 µM)		MIC (Moraxella catarrhalis [13]): 16 µg/mL (≈ 33.6 µM); MIC (Haemophilus influenzae [25]): 32 µg/mL (≈ 67.3 µM); MIC (Staphylococcus aureus [22]): 4 µg/mL (≈ 8.41 µM)
O=C(NC[C@H]1CN(c2ccc(C3CCS(=O)(=O)CC3)c(F)c2)C(=O)O1)c1ccc(Cl)c(Cl)c1		> 64 µg/mL		> 64 µg/mL	2 µg/mL (≈ 3.88 µM)	> 64 µg/mL	MIC (Streptococcus pneumoniae [26]): > 64 µg/mL
